{"source": "patent US7585977B2", "about": "“Selective estrogen receptor modulators containing a phenylsulfonyl group” (Eli Lilly and Company, priority 2005, dated 2009)", "key": {"[1]": {"tested_on": "mature, ovariectomized rats", "assay": "4-Day OVX Rat Uterine Agonist Assay", "type": "in vivo", "details": "4 days of treatment, 3 doses", "method": "Cholesterol levels are also measured to compare relative ability to lower cholesterol with other SERMs. If there is any question of uterine stimulation, histological examination will determine epithelial cell height."}, "[2]": {"tested_on": "Ishikawa human endometrial tumor cells", "assay": "Ishikawa Cell Proliferation Assay, antagonist mode (block of estradiol stimulation)", "type": "cell-based", "method": "Ishikawa Cell Proliferation Assay: This assay measures cell proliferation (using an alkaline phosphatase readout) in both an agonist mode in the presence of a compound of the present invention alone, and in an antagonist mode in which the ability of a compound of the present invention to block estradiol stimulation of growth is measured.\nIshikawa human endometrial tumor cells are maintained in MEM (minimum essential medium, with Earle's salts and L-Glutamine, Gibco BRL, Gaithersburg, Md.), supplemented with 10% fetal bovine serum (FBS) (V/V), (Gibco BRL). […]\nFor the agonist mode, plates receive 25 μl/well of assay medium followed by 25 μl/well of a diluted compound of the present invention (at 6× the final concentrations). […] After a 20-minute incubation, plates are read on a spectophotometer at 405 nm.\nThe data is fitted to a linear interpolation to derive EC50 (for agonist mode) or IC50 (for antagonist mode) values. For the antagonist mode, a % efficacy for each compound is calculated versus E2 (1 nM) alone. For the agonist mode, a % efficacy for each compound is calculated versus the response to tamoxifen."}, "[3]": {"tested_on": "Ishikawa human endometrial tumor cells", "assay": "Ishikawa Cell Proliferation Assay, agonist mode (alkaline phosphatase readout)", "type": "cell-based", "details": "versus the response to tamoxifen, read-out: relative % efficacy"}, "[4]": {"tested_on": "immature (3 week old) female rats", "assay": "3-Day Rat Uterus Antagonist Assay", "type": "in vivo", "details": "oral, 3 days, with E2 0.1 mg/kg", "description": "3-Day Rat Uterus Antagonist Assay: This model for uterine antagonism utilizes immature (3 week old) female rats that are highly sensitive to estrogenic stimulation of the uterus given that their circulating estrogen levels are prepubertal. The uteri from immature rats are fully responsive to exogenous estrogen, yet are quiescent in the absence of exogenous estrogen. Administration of exogenous estrogen to immature rats produces a reliable elevation of uterine weight, which can be used to study uterine antagonist effects.\nTest compounds are dissolved in 20% β-hydroxycyclodextrin and administered by oral gavage in a volume of 0.2 mL daily (15 min. prior to the ethynyl estradiol gavage). A vehicle control, E2 alone and E2+raloxifene are also done as controls. The animals are fasted overnight following the final dose. […]\nUterine weight/body weight ratios (UWR) are calculated for each animal. The percent inhibition of the estrogen-induced response is then calculated by the following formula: percent inhibition=100×(UWRestrogen−UWRtest compound/UWRestrogen−UWRcontrol). […] Both the UWR data and the percent inhibition data were statistically analyzed by one way analysis of variance (ANOVA) with post-hoc testing by Fisher's PLSD when indicated by a p≦0.05. […]"}}, "note": "Where a name gives a salt, the structure may show the parent alone.", "data": [{"smiles": "CCS(=O)(=O)c1ccc(-c2ccc3cc(O)ccc3c2Oc2ccc(OCCN3CCCCC3)cc2)cc1.Cl", "note": "[Example 14, 6-(4-Ethanesulfonyl-phenyl)-5-[4-(2-piperidin-1-yl-ethoxy)-phenoxy]-naphthalen-2-ol Hydrochloride]", "values": [{"measurement": "uterine eosinophil peroxidase (EPO) activity", "setting": "[1]", "value": "did not cause dose-related statistically significant increases"}]}, {"smiles": "CS(=O)(=O)c1cccc(-c2ccc3cc(O)ccc3c2Oc2ccc(OCCN3CCCCC3)cc2)c1", "note": "[Example 16, 6-(3-Methanesulfonyl-phenyl)-5-[4-(2-piperidin-1-yl-ethoxy)-phenoxy]-naphthalen-2-ol Hydrochloride]", "values": [{"measurement": "IC50", "setting": "[2]; 1 nM E2", "value": 35.2, "unit": "nM"}, {"measurement": "Emax", "setting": "[2]; versus E2 (1 nM) alone, read-out: % efficacy (inhibition of the 1 nM estradiol response)", "value": 107, "unit": "%"}]}, {"smiles": "CCS(=O)(=O)c1cc(-c2ccc3cc(O)ccc3c2Oc2ccc(OCCN3CCCCC3)cc2)cc(S(=O)(=O)CC)c1", "note": "[Example 56, 6-(3,5-Bis-ethanesulfonyl-phenyl)-5-[4-(2-piperidin-1-yl-ethoxy)-phenoxy]-naphthalen-2-ol Hydrochloride]", "values": [{"measurement": "Emax", "setting": "[3]", "value": 71.8, "unit": "%"}]}, {"smiles": "CS(=O)(=O)c1ccc(-c2sc3cc(O)ccc3c2Oc2ccc(OCCN3CCCCC3)cc2)cc1.Cl", "note": "[Example 92, 2-(4-Methanesulfonyl-phenyl)-3-[4-(2-piperidin-1-yl-ethoxy)-phenoxy]-benzo[b]thiophen-6-ol Hydrochloride]", "values": [{"measurement": "% antagonism", "setting": "[4]", "value": 62.7, "unit": "%"}, {"measurement": "ED50", "setting": "[4]", "value": 0.53, "unit": "mpk"}]}]}
